Data from US12605318B2, “Synergistic preservative/personal care composition containing an alkylene glycol ester” (priority 2020, dated 2026).

How the values were obtained:
Test in all cases: Log reduction test of preservative agent and PGC in water matrices (drop plate), Example 3
Assay type in all cases: cell-based
[1] = system: Candida albicans ATCC 10231/DSM 1386; details: PGC 0 ppm; for Log reduction: contact time 5 min, water
Procedure: (§1) Bacterial and yeast strains were kept cryofrozen at −80° C.; before use, they were sub-cultured onto tryptone soya agar (Bacteria) and malt extract agar (yeast), and incubated at the appropriate temperature and time.
(§2) A test suspension was then created for each the bacteria and yeast by adding loopfuls of organism to sterile distilled water and adjusting the cell concentration to between 1×10^8 and 5×10^9 CFU/ml for bacteria, and 1×10^6 and 5×10^7 CFU/ml for yeast. This was achieved using the data from a calibration curve generated by a spectrophotometer at a wavelength of 620 nm.
(§3) For each organism tested, 1 g of each preservative agent and PGC composition sample was prepared in sterile distilled water.
(§4) Each test sample was prepared by inoculating 1 ml aliquot of the test organism suspension into 1 ml of test sample.
(§5) The combination was then mixed. Each test mixture was sampled and tested at a defined time point after inoculation. The contact times used in this study are detailed in Table 7 above.
(§6) Upon reaching the specified contact time the test mixture was deactivated by adding a 100 μl of test mixture into 900 μl of neutralizing broth and the whole solution was mixed. The solution was left for 5 minutes to ensure the action of the preservative agent was effectively neutralized. Subsequent dilutions were prepared by adding 100 μl into 900 μl of neutralizing broth.
(§7) For each dilution prepare drop plates using appropriate agar and incubate at the appropriate temperature and time as in Table 5.
(§8) Used the drop plate technique.
(§9) Prepare agar plates by drying for 45 min-1 hour in a laminar flow at 20-25° C. Aliquot 0.025 ml drops onto the agar surface for each sample dilution. Allow drops to dry and incubate appropriately.
(§10) Plates were plates were prepared in sextuplicate for each for each sample dilution.
(§11) [formula] • Where • d1 is sum of viable count values from 6 drops • This was then multiplied by 40 to establish cfu/ml; Enumeration and Calculation of T (Test Sample)
(§12) [formula] • Where • d1 is sum of viable count values from 6 drops • This was then multiplied by 40 to establish cfu/ml;
(§13) To calculate the final log reduction the following calculation was used: Log 10 N−log 10 T=log reduction

[2] = system: Pluralibacter gergoviae ATCC 33028/DSM 9245; details: PGC 0 ppm; for Log reduction: contact time 5 min, water
Procedure: as §1, §2, §3, §4, §5, §6, §7, §8, §9, §10, §11, §12, §13

[3] = system: Aspergillus brasiliensis ATCC 16404/NCPF 2275; details: PGC 0 ppm
Procedure: A test suspension was then created in tryptone buffered saline and adjusting the cell concentration to between 1×10^5 and 5×10^6 CFU/ml.
as §3, §4, §5, §6, §7, §8, §9, §10, §11, §12, §13

[4] = Didecyl dimethyl ammonium chloride 10 ppm
[5] = Didecyl dimethyl ammonium chloride 20 ppm
[6] = Didecyl dimethyl ammonium chloride 30 ppm
[7] = Didecyl dimethyl ammonium chloride 40 ppm
[8] = Didecyl dimethyl ammonium chloride 50 ppm

Q: For `O=c1[nH]sc2ccccc12` [Benzisothiazolinone], which log reduction ([1]; Benzisothiazolinone 50 ppm) is on record?
A: 0.00

Q: What about the log reduction ([1]; Benzisothiazolinone 100 ppm) of the same molecule?
A: 0.00

Q: And the log reduction ([1]; Benzisothiazolinone 250 ppm)?
A: 0.00

Q: What about the log reduction ([1]; Benzisothiazolinone 500 ppm) of the same molecule?
A: 0.00

Q: And the log reduction ([1]; Benzisothiazolinone 1000 ppm)?
A: 0.00

Q: And the log reduction ([2]; Benzisothiazolinone 12.5 ppm)?
A: 0.00

Q: What about the log reduction ([2]; Benzisothiazolinone 25 ppm) of the same molecule?
A: 0.00

Q: And the log reduction ([2]; Benzisothiazolinone 50 ppm)?
A: 0.00

Q: And the log reduction ([2]; Benzisothiazolinone 100 ppm)?
A: 0.03

Q: What about the log reduction ([2]; Benzisothiazolinone 200 ppm) of the same molecule?
A: 1.21

Q: And the log reduction ([3]; Benzisothiazolinone 50 ppm)?
A: −0.03

Q: What about the log reduction ([3]; Benzisothiazolinone 100 ppm) of the same molecule?
A: 0.17

Q: And the log reduction ([3]; Benzisothiazolinone 250 ppm)?
A: 0.14

Q: And the log reduction ([3]; Benzisothiazolinone 500 ppm)?
A: 0.24

Q: And the log reduction ([3]; Benzisothiazolinone 1000 ppm)?
A: 0.28

Q: Which log reduction ([2]; Benzyl Alcohol 500 ppm) does the source give for `OCc1ccccc1` [Benzyl Alcohol] here?
A: 0.00

Q: What about the log reduction ([2]; Benzyl Alcohol 1000 ppm) of the same molecule?
A: 1.24

Q: And the log reduction ([2]; Benzyl Alcohol 2000 ppm)?
A: 1.57

Q: What about the log reduction ([2]; Benzyl Alcohol 3000 ppm) of the same molecule?
A: 2.04

Q: And the log reduction ([2]; Benzyl Alcohol 4000 ppm)?
A: 4.04

Q: `CCCCCCCCCCCCN(CCCN)CCCN` [Bis (3-aminopropyl) dodecylamine] was tested. Which Log reduction ([1]; Bis (3-aminopropyl) dodecylamine 10 ppm) did it give?
A: 3.14

Q: And the Log reduction ([1]; Bis (3-aminopropyl) dodecylamine 20 ppm)?
A: >4.44

Q: What about the Log reduction ([1]; Bis (3-aminopropyl) dodecylamine 40 ppm) of the same molecule?
A: >4.44

Q: And the Log reduction ([1]; Bis (3-aminopropyl) dodecylamine 60 ppm)?
A: >4.44

Q: And the Log reduction ([1]; Bis (3-aminopropyl) dodecylamine 80 ppm)?
A: >4.44

Q: What about the Log reduction ([2]; Bis (3-aminopropyl) dodecylamine 5 ppm) of the same molecule?
A: 0.01

Q: What about the Log reduction ([2]; Bis (3-aminopropyl) dodecylamine 12.5 ppm) of the same molecule?
A: 0.00

Q: What about the Log reduction ([2]; Bis (3-aminopropyl) dodecylamine 25 ppm) of the same molecule?
A: 2.00

Q: What about the Log reduction ([2]; Bis (3-aminopropyl) dodecylamine 50 ppm) of the same molecule?
A: >5.52

Q: And the Log reduction ([2]; Bis (3-aminopropyl) dodecylamine 100 ppm)?
A: >5.52

Q: For `CC(=O)C1C(=O)C=C(C)OC1=O` (stereo not drawn) [Dehydroacetic acid], which log reduction ([1]; Dehydroacetic acid 1000 ppm) is on record?
A: 0.00

Q: What about the log reduction ([1]; Dehydroacetic acid 2000 ppm) of the same molecule?
A: 0.00

Q: What about the log reduction ([1]; Dehydroacetic acid 3000 ppm) of the same molecule?
A: 0.00

Q: What about the log reduction ([1]; Dehydroacetic acid 4000 ppm) of the same molecule?
A: 0.23

Q: And the log reduction ([1]; Dehydroacetic acid 5000 ppm)?
A: 0.52

Q: Which results are given for `CCCCCCCCCC[N+](C)(C)CCCCCCCCCC.[Cl-]` [Didecyl dimethyl ammonium chloride]?
A: Log reduction [1, 4]: 1.07; Log reduction [1, 5]: 1.01; Log reduction [1, 6]: 1.33; Log reduction [1, 7]: 2.43; Log reduction [1, 8]: >4.52; log reduction [3, 4]: 1.01; log reduction [3, 5]: 2.44; log reduction [3, 6]: >4.05; log reduction [3, 7]: >4.05; log reduction [3, 8]: >4.05

Q: `CC(O)C(=O)O` (stereo not drawn) [Lactic Acid] was tested. Which log reduction ([2]; Lactic Acid 200 ppm) did it give?
A: 0.00

Q: What about the log reduction ([2]; Lactic Acid 500 ppm) of the same molecule?
A: 0.00

Q: And the log reduction ([2]; Lactic Acid 1000 ppm)?
A: 2.08

Q: What about the log reduction ([2]; Lactic Acid 1500 ppm) of the same molecule?
A: 3.67

Q: What about the log reduction ([2]; Lactic Acid 2000 ppm) of the same molecule?
A: 4.49

Q: And the log reduction ([3]; Lactic Acid 100 ppm)?
A: 0.06

Q: And the log reduction ([3]; Lactic Acid 250 ppm)?
A: 0.12

Q: And the log reduction ([3]; Lactic Acid 500 ppm)?
A: 0.05

Q: What about the log reduction ([3]; Lactic Acid 1000 ppm) of the same molecule?
A: 0.08

Q: What about the log reduction ([3]; Lactic Acid 2500 ppm) of the same molecule?
A: 0.15

Q: What does the source list for `O=C([O-])c1ccccc1.[Na+]` [Sodium Benzoate]?
A: log reduction ([1]; Sodium Benzoate 10000 ppm): 0.00; log reduction ([1]; Sodium Benzoate 20000 ppm): 0.00; log reduction ([1]; Sodium Benzoate 30000 ppm): 0.00; log reduction ([1]; Sodium Benzoate 40000 ppm): 0.00; log reduction ([1]; Sodium Benzoate 50000 ppm): 2.06; log reduction ([2]; Sodium Benzoate 2000 ppm): 0.00; log reduction ([2]; Sodium Benzoate 5000 ppm): 0.00; log reduction ([2]; Sodium Benzoate 10000 ppm): 0.00; log reduction ([2]; Sodium Benzoate 20000 ppm): 0.46; log reduction ([2]; Sodium Benzoate 30000 ppm): 1.40; log reduction ([3]; Sodium Benzoate 10000 ppm): 0.17; log reduction ([3]; Sodium Benzoate 20000 ppm): 0.50; log reduction ([3]; Sodium Benzoate 30000 ppm): 0.70; log reduction ([3]; Sodium Benzoate 40000 ppm): 1.32; log reduction ([3]; Sodium Benzoate 50000 ppm): 1.34

Q: Which results are given for `C/C=C/C=C/C(=O)O` [Sorbic Acid]?
A: log reduction ([2]; Sorbic acid 100 ppm): 0.00; log reduction ([2]; Sorbic acid 200 ppm): 0.00; log reduction ([2]; Sorbic acid 300 ppm): 0.00; log reduction ([2]; Sorbic acid 400 ppm): 0.58; log reduction ([2]; Sorbic acid 500 ppm): 1.38
